The numbers were not newly measured in patent publication US20200261389A1 (priority 2014, published 2020), which cites them from elsewhere.

In series [1] the test system is zinc-dependent metalloproteinases. Particulars: for reduction of GP shedding: higher concentrations (25-50 mM).
The subject of series [2] is retroviruses. Particulars: millimolar concentrations, in vitro.
Series [3] has as its system leukemia cells.
For series [4], the system named is cultured cells. Particulars: added to cultured cells.
Series [5] relates to Human Foreskin (HF) cells infected with HSV-2-strain G. Particulars: 3 to 1.5 mM.

Molecules are shown by their SMILES. Read-outs that look alike come from different tables or passages of the source.

With `COc1ccc(S(=O)(=O)N(Cc2cccnc2)[C@@H](C(=O)NO)C(C)C)cc1` [CGS-27023A], the “reduction of GP shedding” value in series [1] is on record as “reduced GP shedding”.
`CNC(=O)[C@H](Cc1c[nH]c2ccccc12)NC(=O)[C@@H](CC(=O)NO)CC(C)C` [GM6001]: the “inhibition of glycoprotein shedding” value in series [1] (concentration of 5 mM) is recorded as “inhibitory effects were observed”.
For the compound `O=C(O)CN(CCN(CC(=O)O)CC(=O)O)CC(=O)O` [EDTA, ethylenediaminetetraacetic acid], the effect on retroviruses entry in series [2] is recorded as “partial disintegration of viral membranes”.
As for `c1cnc2c(c1)ccc1cccnc12` [1,10-phenanthroline], the “apoptosis / cell death of leukemia cells” value in series [3] was “DNA fragmentation and cell death occurred”.
Turning to `c1ccc(CN(CCN(Cc2ccccn2)Cc2ccccn2)Cc2ccccn2)nc1` [TPEN, N,N,N′,N′-tetrakis-2-pyridyl methyl-ethylene diamine], in series [4], the “apoptosis of cultured cells” value is listed as “induces apoptosis”.
In the case of `COc1ccc(S(=O)(=O)N2Cc3ccccc3C[C@@H]2C(=O)NO)cc1` [MMP-8 inhibitor I], the “inhibition of glycoprotein shedding” value in series [1] (concentration of 5 mM) is reported as “inhibitory effects were observed”.
On to `COc1ccc(S(=O)(=O)N(CC(=O)NO)CC(C)C)cc1` [MMP-3 inhibitor II], for which the “reduction of GP shedding” value in series [1] is recorded as “reduced GP shedding”.
`CNC(=O)[C@@H](NC(=O)[C@H](CC(C)C)[C@H](O)C(=O)NO)C(C)(C)C` [BB2516]: the “inhibition of glycoprotein shedding” value in series [1] (concentration of 0.5 mM) is given as “inhibitory effects were observed”.
As for `O=C(O)CN(CCOCCOCCN(CC(=O)O)CC(=O)O)CC(=O)O` [EGTA, ethylene glycol tetraacetic acid], the effect on retroviruses entry in series [2] is “partial disintegration of viral membranes”.
`O=C(O)c1ccccn1` [picolinic acid]: in series [5], the “apoptosis of infected cells” value was “cause apoptosis of HF infected cells”. Further, the “apoptosis / cell death of leukemia cells” value in series [3] is “induces apoptosis”.
On to `CC(C)C[C@H](CC(=O)NO)C(=O)N[C@@H](Cc1ccc2ccccc2c1)C(=O)N[C@@H](C)C(=O)NCCN` [TAPI-I], for which the “reduction of GP shedding” value in series [1] is listed as “reduced GP shedding”.
